Data published in US7445939B2, “Stable liquid membranes for liquid phase microextraction” (Varian, Inc., priority 2004, dated 2008).

How the values were obtained:
[1] = Weights of fibers with liquid membranes as a function of time and storing condition; type: physicochemical
[2] = supported liquid membranes of WO 02/088672; cited from earlier work
[3] = Extraction ability and storage stability of supported liquid membranes on hollow fibers (in words); type: physicochemical; details: polypropylene fibers, after 30 days of storage at room temperature
Protocol: The liquid membrane was formed by dipping the hollow fiber into the organic solvent for 5 to 30 sec to allow the solvent to penetrate into the pores of the fiber. Then acceptor solution was introduced into the lumen of the fiber using a syringe. The acceptor solution was 10 mM HCl, having a pH of 2. Extraction ability was tested by immersing the hollow fibers with their supported liquid membranes into a sample vial containing 4 mL of a solution containing 5 basic drugs, at a pH of 12, with stirring, and allowing the analytes to equilibrate across the liquid membranes to the acceptor solution within (25 μl 10 mM HCl). After allowing the sample analytes sufficient time to reach equilibration with the acceptor solution, about 15 to 60 minutes, the acceptor solution was withdrawn from the hollow fibers, and the concentration of analytes was determined using capillary electrophoresis.
Experiments were performed using polypropylene and polysulfone hollow fibers, testing the effectiveness and stability of liquid membranes comprising fatty oils in the extraction of analytes from samples after storage of the fibers for 30 days prior to use. Supported liquid membranes were established on the hollow fibers using the procedures described in Example 1 above, but substituting the following oils for the organic solvents tested in Example 1: tributyrin, soya oil, or olive oil. […]

CCCCCCCCCCCCOC(C)=O [DDA, dodecyl acetate]
Weight (mg) of fibers ([1]; DDA table, closed container, Day 0): 42.40 mg | Weight (mg) of fibers ([1]; DDA table, closed container, Day 3): 42.14 mg | Weight (mg) of fibers ([1]; DDA table, closed container, Day 10): 42.12 mg | Weight (mg) of fibers ([1]; DDA table, open to the air, Day 0): 45.94 mg | Weight (mg) of fibers ([1]; DDA table, open to the air, Day 2): 43.92 mg | Weight (mg) of fibers ([1]; DDA table, open to the air, Day 5): 41.70 mg

CCCCCCCCCCCCCC(=O)OC(C)=O [MA, myristoyl acetate]
Weight (mg) of fibers ([1]; MA table, closed container, Day 0): 38.76 mg | Weight (mg) of fibers ([1]; MA table, closed container, Day 4): 38.72 mg | Weight (mg) of fibers ([1]; MA table, open to the air, Day 0): 41.36 mg | Weight (mg) of fibers ([1]; MA table, open to the air, Day 4): 40.90 mg

CCCCCCCCOc1ccccc1[N+](=O)[O-] [NPOE, nitropheyloctyl ether]
Membrane lifetime [2]: 10 to 20 days

CCCC(=O)OCC(COC(=O)CCC)OC(=O)CCC [tributyrin]
Extraction performance [3]: extracted analytes
